Source: ChEMBL document CHEMBL1201862, “PubChem BioAssay data set” (2004)
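Interpolation was linear, between the two tested concentrations surrounding the appropriate level; five concentrations were tested over 48 hours in 96-well plates. GI50: concentration for 50% inhibition of growth.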 Active and inactive are the calls of the source. No stated cut-off is given here; in the data, active = GI50 up to about 1.1 µM and inactive = higher.

What was measured:
Experiment in all cases: NCI anticancer screen, dose series, 48 h
[1] = tested on: SW-620
[2] = tested on: UACC-257
[3] = tested on: LOX IMVI
[4] = tested on: MDA-MB-231
[5] = tested on: PC-3
[6] = tested on: MDA-N
[7] = tested on: CAKI-1
[8] = tested on: RPMI-8226
[9] = tested on: NCI-H522
[10] = tested on: NCI-H460
[11] = tested on: IGROV-1
[12] = tested on: T47D
[13] = tested on: OVCAR-3
[14] = tested on: NCI-H23
[15] = tested on: KM12
[16] = tested on: U-251
[17] = tested on: UO-31
[18] = tested on: SK-MEL-2
[19] = tested on: HL-60

NC(=O)Nc1ccc(S(=O)(=O)Nc2ccc(S(N)(=O)=O)cc2)cc1
GI50 [1]: > 100 µM (inactive) | GI50 [2]: > 100 µM (inactive) | GI50 [3]: > 100 µM (inactive) | GI50 [4]: > 100 µM (inactive) | GI50 [5]: > 100 µM (inactive) | GI50 [6]: > 100 µM (inactive) | GI50 [7]: > 100 µM (inactive) | GI50 [8]: > 100 µM (inactive) | GI50 [9]: > 100 µM (inactive) | GI50 [10]: > 100 µM (inactive) | GI50 [11]: > 100 µM (inactive) | GI50 [12]: > 100 µM (inactive) | GI50 [13]: > 100 µM (inactive) | GI50 [14]: > 100 µM (inactive) | GI50 [15]: > 100 µM (inactive) | GI50 [16]: > 100 µM (inactive) | GI50 [17]: > 100 µM (inactive) | GI50 [18]: > 100 µM (inactive)

COc1ccccc1C1c2cc3c(cc2OC2(OC)COC(=O)C12)OCO3 (stereo unspecified)
GI50 [19]: 3.03 µM (inactive) | GI50 [1]: 6.7 µM (inactive) | GI50 [2]: 19.7 µM (inactive) | GI50 [3]: 9.02 µM (inactive) | GI50 [4]: 18.2 µM (inactive) | GI50 [5]: 12 µM (inactive) | GI50 [6]: 2.24 µM (inactive) | GI50 [7]: 20 µM (inactive) | GI50 [8]: 8.07 µM (inactive) | GI50 [10]: 15.3 µM (inactive) | GI50 [11]: 13.1 µM (inactive) | GI50 [12]: 34.5 µM (inactive) | GI50 [13]: 9.57 µM (inactive) | GI50 [14]: 29.2 µM (inactive) | GI50 [15]: 4.92 µM (inactive) | GI50 [16]: 14.2 µM (inactive) | GI50 [17]: 14.6 µM (inactive) | GI50 [18]: 7.43 µM (inactive)

CN1CCCC(OC(=O)c2cc3cc(CCl)ccc3oc2=O)C1 (stereo unspecified)
GI50 [19]: 2.07 µM (inactive) | GI50 [1]: 22.7 µM (inactive) | GI50 [2]: 18.1 µM (inactive) | GI50 [3]: 17 µM (inactive) | GI50 [4]: 21 µM (inactive) | GI50 [5]: 18.3 µM (inactive) | GI50 [6]: 18.2 µM (inactive) | GI50 [7]: 23.7 µM (inactive) | GI50 [8]: 29.4 µM (inactive) | GI50 [9]: 15.9 µM (inactive) | GI50 [10]: 19.1 µM (inactive) | GI50 [11]: 28.6 µM (inactive) | GI50 [12]: 32.7 µM (inactive) | GI50 [13]: 14.2 µM (inactive) | GI50 [14]: 19.3 µM (inactive) | GI50 [15]: 24 µM (inactive) | GI50 [16]: 14.9 µM (inactive) | GI50 [17]: 15.8 µM (inactive) | GI50 [18]: 17.6 µM (inactive)

CC[C@@]1(O)C(=O)OCc2c1cc1n(c2=O)Cc2c-1nc1ccccc1c2/C=N\NC(=O)C(N)CS (stereo partly specified)
GI50 [19]: 0.346 µM (active) | GI50 [1]: 1.37 µM (inactive) | GI50 [2]: 7.26 µM (inactive) | GI50 [3]: 0.454 µM (active) | GI50 [4]: 78.9 µM (inactive) | GI50 [5]: 3.52 µM (inactive) | GI50 [6]: 9.4 µM (inactive) | GI50 [7]: 0.495 µM (active) | GI50 [8]: 1.32 µM (inactive) | GI50 [9]: 0.883 µM (active) | GI50 [10]: 0.363 µM (active) | GI50 [11]: 6.7 µM (inactive) | GI50 [12]: 0.1 µM (active) | GI50 [13]: 13.2 µM (inactive) | GI50 [14]: 0.733 µM (active) | GI50 [15]: 24.8 µM (inactive) | GI50 [16]: 0.281 µM (active) | GI50 [17]: 0.989 µM (active) | GI50 [18]: 46.3 µM (inactive)

Brc1ccc2c3c1[C@@H]1O[C@@H]1c1cccc(c1-3)[C@@H]1O[C@H]21
GI50 [19]: 19.6 µM (inactive) | GI50 [1]: 14.5 µM (inactive) | GI50 [2]: 28.4 µM (inactive) | GI50 [3]: 2.21 µM (inactive) | GI50 [4]: 27.4 µM (inactive) | GI50 [5]: 23.6 µM (inactive) | GI50 [6]: 17.6 µM (inactive) | GI50 [7]: 13.1 µM (inactive) | GI50 [8]: 13.1 µM (inactive) | GI50 [9]: 13.8 µM (inactive) | GI50 [12]: 15.4 µM (inactive) | GI50 [13]: 19.9 µM (inactive) | GI50 [14]: 16.3 µM (inactive) | GI50 [15]: 16.9 µM (inactive) | GI50 [16]: 17.6 µM (inactive) | GI50 [17]: 15.4 µM (inactive) | GI50 [18]: 23.6 µM (inactive)

c1ccc(C2=Nn3c(CCCCCCCCc4nnc5n4N=C(c4ccccc4)CS5)nnc3SC2)cc1
GI50 [1]: > 100 µM (inactive) | GI50 [2]: > 100 µM (inactive) | GI50 [3]: 45.4 µM (inactive) | GI50 [4]: 22.9 µM (inactive) | GI50 [5]: > 100 µM (inactive) | GI50 [6]: > 100 µM (inactive) | GI50 [7]: 41.2 µM (inactive) | GI50 [8]: > 100 µM (inactive) | GI50 [9]: 40.2 µM (inactive) | GI50 [10]: > 100 µM (inactive) | GI50 [11]: > 100 µM (inactive) | GI50 [12]: > 92.9 µM (inactive) | GI50 [13]: > 100 µM (inactive) | GI50 [14]: > 74.6 µM (inactive) | GI50 [15]: > 100 µM (inactive) | GI50 [16]: 15.6 µM (inactive) | GI50 [17]: > 67.3 µM (inactive) | GI50 [18]: 32.1 µM (inactive)

C=CCSc1nn(CC=C)cc2ncnc1-2
GI50 [19]: > 100 µM (inactive) | GI50 [1]: > 100 µM (inactive) | GI50 [2]: > 100 µM (inactive) | GI50 [4]: > 100 µM (inactive) | GI50 [5]: > 100 µM (inactive) | GI50 [6]: > 100 µM (inactive) | GI50 [7]: > 100 µM (inactive) | GI50 [8]: > 100 µM (inactive) | GI50 [10]: > 100 µM (inactive) | GI50 [11]: > 100 µM (inactive) | GI50 [12]: > 100 µM (inactive) | GI50 [13]: > 100 µM (inactive) | GI50 [14]: > 100 µM (inactive) | GI50 [15]: > 100 µM (inactive) | GI50 [16]: > 100 µM (inactive) | GI50 [17]: > 100 µM (inactive) | GI50 [18]: > 100 µM (inactive)
